Data from patent US6472348B1, “Pyridone derivatives and herbicides” (Kumiai Chemical Industry Co., Ltd., priority 1996, dated 2002).

What was measured:
Diaitaria ciliaris (Di) [1] = experiment: Test Example 5: crop plant selectivity by upland field soil treatment (wheat), herbicidal effects; assay type: in vivo; conditions: dose 1.6 g ai/10a, 21st day after application
Procedure: (§1) (Test on Crop Plant Selectivity by Upland Field Soil Treatment)
In a plastic pot (surface area: 600 cm^2) filled with sand, wheat (Tr), Diaitaria ciliaris (Di), green foxtail (Se), pale smartweed (Po), slender amaranth (Am), common lambsquarters (Ch) and China jute (Ab) were sown and covered with soil. […] The plants were then cultured in a green house, and the evaluation of the herbicidal effects and phytotoxicity was conducted on the 21st day after the application in accordance with the standards as identified in Table 47. Symbol—represents “not tested”.

wheat (Tr) = experiment: Test Example 5: crop plant selectivity by upland field soil treatment (wheat), phytotoxicity; assay type: in vivo; design: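 grade of crop injury; 5 = at least 90%; 4 = 70 to 90%; 3 = 50 to 70%; 2 = 30 to 50%; 1 = 10 to 30%; 0 = under 10%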; conditions: dose 1.6 g ai/10a, 21st day after application
How it was run: (§2)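 Scores are visual ratings of herbicidal effect or wheat phytotoxicity, recorded on the 21st day after soil treatment of pots sown with wheat and weeds and kept in a greenhouse.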

bulrush (Sc) = experiment: Test Example 1: herbicidal effects by paddy field soil treatment; assay type: in vivo; conditions: 100 g of the active ingredient per 10 ares, 21st day after the application, index 0-5 of Table 47;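 also: grade of growth control; 5 = at least 90%; 4 = 70 to 90%; 3 = 50 to 70%; 2 = 30 to 50%; 1 = 10 to 30%; 0 = under 10%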
How it was run: (§3)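 Scoring of herbicidal effect came 21 days after application of 100 g active ingredient per 10 ares to flooded (3 cm) paddy-soil pots sown with barnyardgrass, monochoria and bulrush, kept in a greenhouse.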

barnyardgrass (Ec) [2] = experiment: as above; assay type: in vivo; conditions: 100 g of the active ingredient per 10 ares, 21st day after the application, index 0-5 of Table 47
How it was run: as §3

monochoria (Mo) = experiment: as above; assay type: in vivo; conditions: 100 g of the active ingredient per 10 ares, 21st day after the application, index 0-5 of Table 47;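 also: grade of growth control; 5 = at least 90%; 4 = 70 to 90%; 3 = 50 to 70%; 2 = 30 to 50%; 1 = 10 to 30%; 0 = under 10%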
How it was run: as §3

pale smartweed (Po) [3] = experiment: Test Example 3: herbicidal effects by upland field foliage treatment; assay type: in vivo; design: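 grade of growth control; 5 = at least 90%; 4 = 70 to 90%; 3 = 50 to 70%; 2 = 30 to 50%; 1 = 10 to 30%; 0 = under 10%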; conditions: 100 g active ingredient per 10 ares, evaluated 14th day after treatment
How it was run: (§4)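 Sowing into sand pots with a 120 cm^2 surface, followed by soil covering and 2 weeks of greenhouse growth, preceded the leaf treatment. Scoring of weed control took place on the 14th day afterwards according to set evaluation criteria.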

[4] = tested on: common lambsquarters (Ch); experiment: as above; assay type: in vivo; design: scale not given here; conditions: 100 g active ingredient per 10 ares, evaluated 14th day after treatment
How it was run: as §4

Diaitaria ciliaris (Di) [5] = experiment: as above; assay type: in vivo; design: scale not given here; conditions: 100 g active ingredient per 10 ares, evaluated 14th day after treatment
How it was run: as §4

slender amaranth (Am) [6] = experiment: as above; assay type: in vivo; design: scale not given here; conditions: 100 g active ingredient per 10 ares, evaluated 14th day after treatment
How it was run: as §4

rice flatsedge (Ci) [7] = experiment: as above; assay type: in vivo; design: scale not given here; conditions: 100 g active ingredient per 10 ares, evaluated 14th day after treatment
How it was run: as §4

barnyardgrass (Ec) [8] = experiment: as above; assay type: in vivo; design: scale not given here; conditions: 100 g active ingredient per 10 ares, evaluated 14th day after treatment
How it was run: as §4

pale smartweed (Po) [9] = experiment: Test Example 5: crop plant selectivity by upland field soil treatment (wheat), herbicidal effects; assay type: in vivo; design: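 grade of growth control; 5 = at least 90%; 4 = 70 to 90%; 3 = 50 to 70%; 2 = 30 to 50%; 1 = 10 to 30%; 0 = under 10%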; conditions: dose 1.6 g ai/10a, 21st day after application
How it was run: as §2

[10] = tested on: common lambsquarters (Ch); experiment: as above; assay type: in vivo; design: scale not given here; conditions: dose 1.6 g ai/10a, 21st day after application
How it was run: as §2

green foxtail (Se) = experiment: as above; assay type: in vivo; design: scale not given here; conditions: dose 1.6 g ai/10a, 21st day after application
How it was run: as §2

China jute (Ab) [11] = experiment: as above; assay type: in vivo; design: scale not given here; conditions: dose 1.6 g ai/10a, 21st day after application
How it was run: as §2

slender amaranth (Am) [12] = experiment: as above; assay type: in vivo; design: scale not given here; conditions: dose 1.6 g ai/10a, 21st day after application
How it was run: as §2

pale smartweed (Po) [13] = experiment: Test Example 2: herbicidal effects by upland field soil treatment; assay type: in vivo; conditions: 100 g of the active ingredient per 10 ares, evaluated on the 21st day after application;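 also: grade of growth control; 5 = at least 90%; 4 = 70 to 90%; 3 = 50 to 70%; 2 = 30 to 50%; 1 = 10 to 30%; 0 = under 10%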
Text: (§5) (Test on Herbicidal Effects by Upland Field Soil Treatment)

[14] = tested on: common lambsquarters (Ch); experiment: as above; assay type: in vivo; conditions: 100 g of the active ingredient per 10 ares, evaluated on the 21st day after application
Text: as §5

slender amaranth (Am) [15] = experiment: as above; assay type: in vivo; conditions: 100 g of the active ingredient per 10 ares, evaluated on the 21st day after application
Text: as §5

rice flatsedge (Ci) [16] = experiment: as above; assay type: in vivo; conditions: 100 g of the active ingredient per 10 ares, evaluated on the 21st day after application
Text: as §5

barnyardgrass (Ec) [17] = experiment: as above; assay type: in vivo; conditions: 100 g of the active ingredient per 10 ares, evaluated on the 21st day after application
Text: as §5

Digitaria ciliaris (Di) = experiment: as above; assay type: in vivo; conditions: 100 g of the active ingredient per 10 ares, evaluated on the 21st day after application;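 also: grade of growth control; 5 = at least 90%; 4 = 70 to 90%; 3 = 50 to 70%; 2 = 30 to 50%; 1 = 10 to 30%; 0 = under 10%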
Text: as §5

Diaitaria ciliaris (Di) [18] = experiment: Test Example 4: crop plant selectivity by upland field soil treatment (cotton), herbicidal effects; assay type: in vivo; conditions: dose 6.3 g ai/10 a, evaluated 21st day after application
How it was run: (§6)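 Weeds and cotton, sown in sand and topped with soil, received a soil-applied treatment. Evaluation after three weeks in a greenhouse followed a standard rating scale.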

cotton (Go) = experiment: Test Example 4: crop plant selectivity by upland field soil treatment (cotton), phytotoxicity; assay type: in vivo; design: scale not given here; conditions: dose 6.3 g ai/10 a, evaluated 21st day after application
How it was run: as §6

pale smartweed (Po) [19] = experiment: Test Example 6: crop plant selectivity by upland field soil treatment (soybean), herbicidal effects; assay type: in vivo; design: scale not given here; conditions: dose 6.3 g ai/10a, 21st day after application
How it was run: (§7)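 Soybean and weeds sown in sand-filled pots and covered with soil, then treated by soil application. Plants grown in a greenhouse, with herbicidal effect and crop phytotoxicity scored on day 21 after application against a fixed rating scale.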

[20] = tested on: common lambsquarters (Ch); experiment: as above; assay type: in vivo; design: scale not given here; conditions: dose 6.3 g ai/10a, 21st day after application
How it was run: as §7

China jute (Ab) [21] = experiment: as above; assay type: in vivo; design: scale not given here; conditions: dose 6.3 g ai/10a, 21st day after application
How it was run: as §7

slender amaranth (Am) [22] = experiment: as above; assay type: in vivo; design: scale not given here; conditions: dose 6.3 g ai/10a, 21st day after application
How it was run: as §7

Johnsongrass (So) = experiment: as above; assay type: in vivo; conditions: dose 6.3 g ai/10a, 21st day after application
Procedure: as §1
(§8) In a plastic pot (surface area: 600 cm^2) filled with sand, soybean (Gl), Diaitaria ciliaris (Di), green foxtail (Se), Johnsongrass (So), pale smartweed (Po), slender amaranth (Am), common lambsquarters (Ch) and China jute (Ab) were sown and covered with soil. […] The plants were then cultured in a green house, and the evaluation of the herbicidal effects and phytotoxicity was conducted on the 21st day after the application in accordance with the standards as identified in Table 47. Symbol—represents “not tested”.

Diaitaria ciliaris (Di) [23] = experiment: as above; assay type: in vivo; conditions: dose 6.3 g ai/10a, 21st day after application
Procedure: as §1, §8

corn (Ze) = experiment: Test Example 11: crop plant selectivity by upland field foliage treatment (corn), phytotoxicity; conditions: corn; foliage treatment; dose 1.6 g ai/10a; evaluated on 14th day after treatment; index per Table 47
How it was run: (§9)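 Corn with pale smartweed, slender amaranth, common lambsquarters and China jute sown in sand-filled pots and grown 2 weeks in a greenhouse before foliage treatment. Herbicidal effect and crop phytotoxicity scored on day 14 after treatment against a rating standard.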

soybean (Gl) = experiment: Test Example 6: crop plant selectivity by upland field soil treatment (soybean), phytotoxicity; assay type: in vivo; design: scale not given here; conditions: dose 6.3 g ai/10a, 21st day after application
How it was run: as §7

pale smartweed (Po) [24] = experiment: Test Example 11: crop plant selectivity by upland field foliage treatment (corn), herbicidal effects; assay type: in vivo; design: scale not given here; conditions: pale smartweed; foliage treatment; dose 1.6 g ai/10a; evaluated on 14th day after treatment; index per Table 47
How it was run: as §9

[25] = tested on: common lambsquarters (Ch); experiment: as above; assay type: in vivo; design: scale not given here; conditions: common lambsquarters; foliage treatment; dose 1.6 g ai/10a; evaluated on 14th day after treatment; index per Table 47
How it was run: as §9

China jute (Ab) [26] = experiment: as above; assay type: in vivo; design: scale not given here; conditions: China jute; foliage treatment; dose 1.6 g ai/10a; evaluated on 14th day after treatment; index per Table 47
How it was run: as §9

slender amaranth (Am) [27] = experiment: as above; assay type: in vivo; design: scale not given here; conditions: slender amaranth; foliage treatment; dose 1.6 g ai/10a; evaluated on 14th day after treatment; index per Table 47
How it was run: as §9

pale smartweed (Po) [28] = experiment: Test Example 4: crop plant selectivity by upland field soil treatment (cotton), herbicidal effects; assay type: in vivo; design: scale not given here; conditions: dose 6.3 g ai/10 a, evaluated 21st day after application
How it was run: as §6

[29] = tested on: common lambsquarters (Ch); experiment: as above; assay type: in vivo; design: scale not given here; conditions: dose 6.3 g ai/10 a, evaluated 21st day after application
How it was run: as §6

China jute (Ab) [30] = experiment: as above; assay type: in vivo; design: scale not given here; conditions: dose 6.3 g ai/10 a, evaluated 21st day after application
How it was run: as §6

slender amaranth (Am) [31] = experiment: as above; assay type: in vivo; design: scale not given here; conditions: dose 6.3 g ai/10 a, evaluated 21st day after application
How it was run: as §6

| SMILES | Herbicidal effects Sc (bulrush (Sc)) | Herbicidal effects Ec (barnyardgrass (Ec) [2]) | Herbicidal effects Mo (monochoria (Mo)) | Herbicidal effects Po (pale smartweed (Po) [3]) | Herbicidal effects Ch [4] | Herbicidal effects Di (Diaitaria ciliaris (Di) [5]) | Herbicidal effects Am (slender amaranth (Am) [6]) | Herbicidal effects Ci (rice flatsedge (Ci) [7]) | Herbicidal effects Ec (barnyardgrass (Ec) [8]) | Herbicidal effects Po (pale smartweed (Po) [13]) | Herbicidal effects Ch [14] | Herbicidal effects Am (slender amaranth (Am) [15]) | Herbicidal effects Ci (rice flatsedge (Ci) [16]) | Herbicidal effects Ec (barnyardgrass (Ec) [17]) | Herbicidal effects Di (Digitaria ciliaris (Di)) | further results |
| --- | --- | --- | --- | --- | --- | --- | --- | --- | --- | --- | --- | --- | --- | --- | --- | --- |
| Cn1c(C(F)(F)F)ccc(-c2cc3c(cc2F)OCC(=O)N3)c1=O [Compound No. 2-4, 3-(7-fluoro-2,3-dihydro-1,4-benzoxazin-3-on-6-yl)-1-methyl-6-trifluoromethyl-2(1H)-pyridone] | 5 | 5 | 5 | 5 | 5 | 5 | 5 | 5 | 5 | 5 | 5 | 5 | 5 | 5 | 5 | Herbicidal effects Di (Diaitaria ciliaris (Di) [1]): 5; Phytotoxicity Tr (wheat (Tr)): 0; Herbicidal effects Po (pale smartweed (Po) [9]): 5; Herbicidal effects Ch [10]: 4; Herbicidal effects Se (green foxtail (Se)): 5; Herbicidal effects Ab (China jute (Ab) [11]): 3; Herbicidal effects Am (slender amaranth (Am) [12]): 5 |
| C#CCOc1cc(-c2cn(C)c(C(F)(F)F)cc2=O)c(F)cc1Cl [Compound 6-9] | 5 | 5 | 5 | 5 | 5 | 5 | 5 | 5 | 5 | 5 | 5 | 5 | 5 | 5 | 5 | Herbicidal effects Di (Diaitaria ciliaris (Di) [18]): 5; Phytotoxicity Go (cotton (Go)): 0; Herbicidal effects Po (pale smartweed (Po) [19]): 5; Herbicidal effects Ch [20]: 5; Herbicidal effects Ab (China jute (Ab) [21]): 5; Herbicidal effects Am (slender amaranth (Am) [22]): 5; Herbicidal effects So (Johnsongrass (So)): 5; Herbicidal effects Di (Diaitaria ciliaris (Di) [23]): 5; Phytotoxicity Ze (corn (Ze)): 1; Phytotoxicity Gl (soybean (Gl)): 0; Herbicidal effects Po (pale smartweed (Po) [24]): 5; Herbicidal effects Ch [25]: 5; Herbicidal effects Ab (China jute (Ab) [26]): 5; Herbicidal effects Am (slender amaranth (Am) [27]): 5; Herbicidal effects Po (pale smartweed (Po) [28]): 5; Herbicidal effects Ch [29]: 5; Herbicidal effects Ab (China jute (Ab) [30]): 5; Herbicidal effects Am (slender amaranth (Am) [31]): 5 |
